Experimental findings from patent US11926628B2 (Gilead Sciences, Inc., priority 2021, dated 2024) are described below.

The structures appear in SMILES notation.

Assay [1] relates to Jurkat NFκB-luciferase cells. The assay is described as follows: Jurkat NFκB-Luciferase Assay. The assay is classed as cell-based. Particulars: Homo sapiens; Jurkat NFκB-luciferase cells activated with anti-CD3 antibody (OKT3), 2.5 hrs at 37° C.; geometric mean; read-out: DGK NFKb Luciferase EC50. On the procedure:
The activity of compounds was tested in a cell based NFκB reporter assay. Jurkat cells that are stably expressing a luciferase reporter construct under the transcriptional control of a NFκB reporter element were activated with an anti-CD3 antibody and luciferase levels were measured with a bioluminescence readout. An increase in the levels of bioluminescence was indicative of enhanced T-cell activation following DGKα inhibition by the compound.
Flat-bottom polystyrene plates (384-well, tissue culture treated) were coated overnight at 4° C. with 20 ul/well of a solution of phosphate-buffered saline supplemented with 5 ug/ml anti-CD3 antibody (clone OKT3, Biolegend). The day after, the excess antibody was washed out five times with 100 ul/well of assay medium (RPMI supplemented with 10% fetal bovine serum) using a Biotek EL406 instrument and leaving 20 ul of residual volume in each well. Jurkat NFκB-luciferase cells (Promega #) were harvested and diluted to 1 million cells/ml in assay medium. Sixty nanoliters of test compound dissolved in DMSO at various concentrations were dispensed into 384-well v-bottom polypropylene plates (Greiner) using a Labcyte Echo instrument. Thirty microliters of medium containing the Jurkat NFκB-luciferase cells were then dispensed using a Biotek MicroFlo instrument in each well of the compound-containing plate. The medium/cell/compound mixture was mixed with a Bravo instrument and 20 ul/well of the mixture was transferred to the anti-CD3-coated plate. The assay mixture was then incubated for 2.5 hrs at 37° C. followed by equilibration at 25° C. for 30 min. Forty microliters of One-Glo Ex (Promega) was then added to the assay mixture and luciferase activity was read on a Envision plate reader 7 minutes later.
Bioluminescence data were normalized based on maximum enhancement (1 micromolar of compound) and on basal activation (DMSO) controls. Least squares curve fittings were performed using a four-parameter variable slope nonlinear regression model. EC50 is defined as the concentration of compound required to produce 50% of maximum NFκB luciferase signal. EC50 values from multiple experiments were averaged by geometric mean and the standard deviation was calculated.

The target of assay [2] is human DGKα (Homo sapiens (Human), UniProt P23743). Put plainly: DGKα Biochemical Activity Assay (ADP-Glo). Particulars: recombinant DGKα 1 nM, 100 μM ATP, 18:1 DAG/POPS/octylglucoside micelles, 1 hour at 25° C.; geometric mean; read-out: HTBS DGKa 1X ATP KM IC50. From the text:
Alternatively, the enzymatic activity of human DGKα was monitored in a biochemical assay in the presence or absence of compounds and using micelles containing 18:1 Diacylglycerol (DAG), 16:0-18:1 PS (POPS) and Octylglucoside as substrate. DGKα activity led to conversion of DAG and ATP to Phosphatidic Acid (PA) and ADP. Levels of ADP were monitored by bioluminescence using the ADP-Glo Kinase Assay (Promega) and were indicative of DGKα activity.
Ten nanoliters of test compound dissolved in DMSO at various concentrations were dispensed into a 384-well low volume nonbinding service white plates (Corning #3824) using a Labcyte Echo instrument. Recombinant DGKα (Carna Biosciences) in assay buffer (5 μL in 50 mM MOPS [3-(N-morpholino) propanesulfonic acid], pH 7.2; 0.0025% Triton X-100; 1 mM dithiothreitol; 5 mM MgCl2, 200 μM ATP) was added to the compound-containing plate and was incubated for 15 minutes at 25° C. A substrate solution (5 μL in 1.7 mM 1,2-dioleoyl-sn-glycerol [18:1 DAG], 13.5 mM 1-palmitoyl-2-oleoyl-sn-glycero-3-phospho-L-serine [16:0-18:1 PS](POPS), 2 μM CaCl2, 100 mM Octylglucoside (OG), 1 mM DTT) (obtained from Carna Biosciences) diluted in DGK ALPHA assay buffer was then added to start the reaction. Final concentrations were 1 nM DGKα, 100 μM ATP, 1 μM calcium chloride, 0.85 mM 1,2-dioleoyl-sn-glycerol (18:1 DAG), 6.75 mM 1-palmitoyl-2-oleoyl-sn-glycero-3-phospho-L-serine (16:0-18:1 PS) (POPS), 1 μM CaCl2), 50 mM Octylglucoside (OG) and 5 mM MgCl2. The reaction mixture was incubated at 25° C. for 1 hour. ADP-Glo Reagent (10 μL, 10 mM Mg added) provided by the kit was added to each well and incubated at 25° C. for 40 minutes. Then, 20 μL of Kinase Detection Reagent was added and incubated at 25° C. for 40 minutes. Luciferase activity of each well was measured via luminescence on an Envision plate reader (PerkinElmer).
Data were normalized based on maximum inhibition (50 μM of kinase inhibitor CU3) and no inhibition (DMSO) controls. Least squares curve fittings were performed using a four-parameter variable slope nonlinear regression model. IC50 was defined as the concentration of compound required to inhibit 50% of maximum activity. IC50 values from multiple experiments were averaged by geometric mean and the standard deviation was calculated.
On the technique in general: ADP-Glo turns the ADP formed in a reaction into a luminescent signal.

Chain of human DGKα (P23743 whole entry): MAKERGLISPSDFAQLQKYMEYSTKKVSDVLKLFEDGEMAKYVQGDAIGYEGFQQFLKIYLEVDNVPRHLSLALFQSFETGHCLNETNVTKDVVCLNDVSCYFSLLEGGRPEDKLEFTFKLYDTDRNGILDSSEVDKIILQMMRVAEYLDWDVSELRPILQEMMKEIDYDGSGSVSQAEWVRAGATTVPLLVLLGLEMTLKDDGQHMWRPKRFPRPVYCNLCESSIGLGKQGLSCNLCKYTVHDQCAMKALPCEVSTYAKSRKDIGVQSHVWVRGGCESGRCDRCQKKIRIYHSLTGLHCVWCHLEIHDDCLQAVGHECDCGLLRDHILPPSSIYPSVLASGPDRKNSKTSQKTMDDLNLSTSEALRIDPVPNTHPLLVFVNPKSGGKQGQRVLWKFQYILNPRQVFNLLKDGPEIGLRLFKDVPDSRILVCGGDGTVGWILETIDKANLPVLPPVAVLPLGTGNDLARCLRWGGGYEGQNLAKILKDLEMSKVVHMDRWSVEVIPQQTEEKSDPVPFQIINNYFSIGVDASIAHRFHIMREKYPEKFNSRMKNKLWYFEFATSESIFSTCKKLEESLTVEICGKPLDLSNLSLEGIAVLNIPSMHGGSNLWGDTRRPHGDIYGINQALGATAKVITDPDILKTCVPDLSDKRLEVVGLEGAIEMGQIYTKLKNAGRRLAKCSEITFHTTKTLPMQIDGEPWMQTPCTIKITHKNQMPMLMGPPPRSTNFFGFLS

A word on the EC50: it is the concentration needed to bring the measured effect to its halfway point. As a reminder, the IC50 is the point on the concentration scale where inhibition reaches its midpoint. As to `Cc1nnc2nc(N(CC(F)F)c3cc(F)cc(C#CC4(C(F)(F)F)CC4)c3)c3ncccc3n12` [Example 18, N-(2,2-difluoroethyl)-N-(3-fluoro-5-((1-(trifluoromethyl)cyclopropyl)ethynyl)phenyl)-1-methylpyrido[2,3-e][1,2,4]triazolo[4,3-a]pyrimidin-5-amine], the EC50 in assay [1] was determined as 4.73 nM. The IC50 in assay [2] came to 64.4 nM.

Turning to `CC(C)(O)C#Cc1cc(F)cc(N(CC(F)F)c2nc3nncn3c3cccnc23)c1` [Example 19, 4-(3-((2,2-difluoroethyl)(pyrido[2,3-e][1,2,4]triazolo[4,3-a]pyrimidin-5-yl)amino)-5-fluorophenyl)-2-methylbut-3-yn-2-ol], the EC50 in assay [1] amounted to 47.7 nM. The IC50 in assay [2] stood at 67.6 nM.

As for `Fc1cc(C#CC2(C(F)(F)F)CC2)cc(N(CC(F)F)c2nc3nncn3c3cccnc23)c1` [Example 20, N-(2,2-difluoroethyl)-N-(3-fluoro-5-((1-(trifluoromethyl)cyclopropyl)ethynyl)phenyl)pyrido[2,3-e][1,2,4]triazolo[4,3-a]pyrimidin-5-amine], the EC50 in assay [1] worked out at 2.9 nM. Besides, in assay [2], the IC50 was found to be 71.8 nM.

Consider `Cc1nnc2nc(N3CCCc4c(C#CC(C)(C)C(F)(F)F)cccc43)c3ncccc3n12` [Example 21, 3-methyl-8-[5-(4,4,4-trifluoro-3,3-dimethyl-but-1-ynyl)-3,4-dihydro-2H-quinolin-1-yl]-2,4,5,7,10-pentazatricyclo[7.4.0.02,6]trideca-1(13),3,5,7,9,11-hexaene], for which the concentration for a half-maximal effect (EC50) in assay [1] is 12.5 nM. In addition, in assay [2], the IC50 was 73.9 nM.

`Cc1nnc2nc(N3CCCc4c(C#CC5(C)CC5)cccc43)c3ncccc3n12` [Example 22, 3-methyl-8-[5-[2-(1-methylcyclopropyl)ethynyl]-3,4-dihydro-2H-quinolin-1-yl]-2,4,5,7,10-pentazatricyclo[7.4.0.02,6]trideca-1(13),3,5,7,9,11-hexaene]: in assay [1], the EC50 worked out at 3.26 nM. Besides, the IC50 in assay [2] is 23.2 nM.

Turning to `Cc1nnc2nc(N3CCCc4c(C#CC5(C(F)(F)F)CC5)cccc43)c3ncccc3n12` [Example 23, 3-methyl-8-[5-[2-[1-(trifluoromethyl)cyclopropyl]ethynyl]-3,4-dihydro-2H-quinolin-1-yl]-2,4,5,7,10-pentazatricyclo[7.4.0.02,6]trideca-1(13),3,5,7,9,11-hexaene], the EC50 in assay [1] was found to be 13.5 nM. Further, the IC50 in assay [2] worked out at 41.9 nM.

For `CC1(C#Cc2cccc3c2CCCN3c2nc3nncn3c3cccnc23)CC1` [Example 24, 8-[5-[2-(1-methylcyclopropyl)ethynyl]-3,4-dihydro-2H-quinolin-1-yl]-2,4,5,7,10-pentazatricyclo[7.4.0.02,6]trideca-1(13),3,5,7,9,11-hexaene], the EC50 in assay [1] was 2.77 nM. Moreover, in assay [2], the IC50 was found to be 17 nM.

As to `FC(F)(F)C1(C#Cc2cccc3c2CCCN3c2nc3nncn3c3cccnc23)CC1` [Example 25, 8-[5-[2-[1-(trifluoromethyl)cyclopropyl]ethynyl]-3,4-dihydro-2H-quinolin-1-yl]-2,4,5,7,10-pentazatricyclo[7.4.0.02,6]trideca-1(13),3,5,7,9,11-hexaene], the EC50 in assay [1] worked out at 3.08 nM. The IC50 in assay [2] was found to be 22.6 nM.

Take `Cc1nnc2nc(N3CCCc4c(C#CC5(CF)CC5)cccc43)c3ncccc3n12` [Example 26, 5-(5-((1-(fluoromethyl)cyclopropyl)ethynyl)-3,4-dihydroquinolin-1(2H)-yl)-1-methylpyrido[2,3-e][1,2,4]triazolo[4,3-a]pyrimidine]: the EC50 in assay [1] was found to be 8.37 nM. Further, in assay [2], the IC50 came to 21.2 nM.

Consider `FCC1(C#Cc2cccc3c2CCCN3c2nc3nncn3c3cccnc23)CC1` [Example 27, 5-(5-((1-(fluoromethyl)cyclopropyl)ethynyl)-3,4-dihydroquinolin-1(2H)-yl)pyrido[2,3-e][1,2,4]triazolo[4,3-a]pyrimidine], for which, in assay [1], the EC50 was determined as 6.11 nM. For the same compound, the IC50 in assay [2] is 6.83 nM.

Take `Cc1nnc2nc(N3CCCc4c(C#CC(C)(C)O)cccc43)c3c(F)cncc3n12` [Example 28, 4-(1-(6-fluoro-1-methylpyrido[4,3-e][1,2,4]triazolo[4,3-a]pyrimidin-5-yl)-1,2,3,4-tetrahydroquinolin-5-yl)-2-methylbut-3-yn-2-ol]: the EC50 in assay [1] was determined as 33.6 nM. Also, the IC50 in assay [2] was determined as 11.9 nM.

In the case of `Cc1nnc2nc(N3CCCc4c3ccnc4C#CC3(C(C)(F)F)CC3)c3c(F)cncc3n12` [Example 29, 5-(5-((1-(1,1-difluoroethyl)cyclopropyl)ethynyl)-3,4-dihydro-1,6-naphthyridin-1(2H)-yl)-6-fluoro-1-methylpyrido[4,3-e][1,2,4]triazolo[4,3-a]pyrimidine], in assay [1], the EC50 was found to be 7.24 nM. In assay [2], the IC50 worked out at 37.7 nM.

As to `Cc1nnc2nc(N3CCCc4c3ccnc4C#CC(C)(C)C(F)(F)F)c3c(F)cncc3n12` [Example 30, 6-fluoro-1-methyl-5-(5-(4,4,4-trifluoro-3,3-dimethylbut-1-yn-1-yl)-3,4-dihydro-1,6-naphthyridin-1(2H)-yl)pyrido[4,3-e][1,2,4]triazolo[4,3-a]pyrimidine], in assay [1], the EC50 is 13.2 nM. In addition, the IC50 in assay [2] is 24.8 nM.

In the case of `Cc1nnc2nc(N3CCCc4c3ccnc4C#CC(C)(C)C#N)c3c(F)cncc3n12` [Example 31, 4-(1-(6-fluoro-1-methylpyrido[4,3-e][1,2,4]triazolo[4,3-a]pyrimidin-5-yl)-1,2,3,4-tetrahydro-1,6-naphthyridin-5-yl)-2,2-dimethylbut-3-ynenitrile], the EC50 in assay [1] is 81.1 nM. Moreover, the IC50 in assay [2] was found to be 72.3 nM.

As to `Cc1nnc2nc(N3CCCc4c3ccnc4C#CC3(C)CC3)c3c(F)cncc3n12` [Example 32, 6-fluoro-1-methyl-5-(5-((1-methylcyclopropyl)ethynyl)-3,4-dihydro-1,6-naphthyridin-1(2H)-yl)pyrido[4,3-e][1,2,4]triazolo[4,3-a]pyrimidine], the EC50 in assay [1] is 8.79 nM. The IC50 in assay [2] turned out to be 12.6 nM.

For the compound `Cc1nnc2nc(N3CCCc4c3ccnc4C#CC3(C(F)(F)F)CC3)c3c(F)cncc3n12` [Example 33, 6-fluoro-1-methyl-5-(5-((1-(trifluoromethyl)cyclopropyl)ethynyl)-3,4-dihydro-1,6-naphthyridin-1(2H)-yl)pyrido[4,3-e][1,2,4]triazolo[4,3-a]pyrimidine], in assay [1], the EC50 was 5.13 nM. The IC50 in assay [2] came out at 22.4 nM.

For the compound `Cc1nnc2nc(N3CCCc4c(C#CC5(C(C)(F)F)CC5)cncc43)c3c(F)cncc3n12` [Example 34, 5-(5-((1-(1,1-difluoroethyl)cyclopropyl)ethynyl)-3,4-dihydro-1,7-naphthyridin-1(2H)-yl)-6-fluoro-1-methylpyrido[4,3-e][1,2,4]triazolo[4,3-a]pyrimidine], in assay [1], the EC50 turned out to be 3.34 nM. Further, the IC50 in assay [2] is 42.8 nM.
